Results taken from patent publication US20080293583A1, “Methods for diagnosing mood disorders” (Wyeth, priority 2003, published 2008).

Experiments:
Type in all cases: in vivo
[1] = tested on: Probasin precursor (lipocalin family member); assay: 2-DE proteome analysis of rat hippocampus: Probasin precursor; details: rat hippocampus cytosolic extract, 10 mg/kg i.p. daily 14 days, vs control; gel spot 70
Method: (§1) Animal dosing. Adult male Sprague Dawley rats weighing 230-320 g were housed with ad libitum access to food and water. After 1 week of habituation, rats were administered either an antidepressant or vehicle alone. The following drugs were administered intraperitoneally (i.p.): fluoxetine (10 mg/kg daily), venlafaxine (10 mg/kg daily) or vehicle alone (1 ml/kg normal saline daily) for 14 days (n=3 rats per group).
(§2) Sample preparation and cytosolic protein extraction. The animals were euthanized and hippocampi were rapidly dissected from the whole brain. Samples from each treatment group were pooled and stored at −85° C. Cytosolic extracts were prepared using the universal extraction kit from Sigma (prot-two) as follows: soluble cytoplasmic extraction reagent (S2688) was added to the hippocampal tissue (10 ml/250 mg wet weight). […]
(§3) Two-dimensional gel electrophoresis. […] Molecular masses were determined by running standard protein markers (Genomic Solutions Inc.), covering the range 10-200 kDa as well as internal verification via landmark proteins within the gel. […]
(§4) Protein fixation, silver staining and 2-D gel comparisons. […] Protein spots were outlined (first automatically and then manually) and quantified using the HT analyzer v2.2 software (Genomic Solutions Inc.). The software calculated the relative spot volume of the proteins compared with the total amount of protein in the gel. […]

[2] = tested on: Serine Protease Inhibitor 2.1 (SPI-2.1); assay: 2-DE proteome analysis of rat hippocampus: SPI-2.1; details: rat hippocampus cytosolic extract, 10 mg/kg i.p. daily 14 days, vs control; gel spot 62
Method: as §1, §2, §3, §4

[3] = tested on: Cytochrome C oxidase polypeptide VB, mitochondrial precursor (COX5B); assay: 2-DE proteome analysis of rat hippocampus: COX5B; details: rat hippocampus cytosolic extract, 10 mg/kg i.p. daily 14 days, vs control; gel spot 86
Method: as §1, §2, §3, §4

[4] = tested on: Ras-related protein RAB-1B; assay: 2-DE proteome analysis of rat hippocampus: RAB-1B; details: rat hippocampus cytosolic extract, 10 mg/kg i.p. daily 14 days, vs control; gel spot 90 (mix)
Method: as §1, §2, §3, §4

[5] = tested on: PCTAIRE-3 (Serine/Threonine-Protein Kinase); assay: 2-DE proteome analysis of rat hippocampus: PCTAIRE-3; details: rat hippocampus cytosolic extract, 10 mg/kg i.p. daily 14 days, vs control; gel spot 6
Method: as §1, §2, §3, §4

IGF-1 A precursor = assay: 2-DE proteome analysis of rat hippocampus after antidepressant treatment: IGF-1 A precursor; details: rat hippocampus cytosolic extract, 10 mg/kg i.p. daily 14 days, vs control; gel spot 87
Method: as §1, §2, §3, §4

[6] = tested on: 60S Ribosomal Protein L35A; assay: 2-DE proteome analysis of rat hippocampus: Ribosomal Protein L35A; details: rat hippocampus cytosolic extract, 10 mg/kg i.p. daily 14 days, vs control; gel spot 92
Method: as §1, §2, §3, §4

[7] = tested on: Proteasome subunit alpha type 2 (Multicatalytic endopeptidase complex subunit C3); assay: 2-DE proteome analysis of rat hippocampus: Proteasome subunit alpha type 2; details: rat hippocampus cytosolic extract, 10 mg/kg i.p. daily 14 days, vs control
Method: as §1
Sample preparation and cytosolic protein extraction. The animals were euthanized and hippocampi were rapidly dissected from the whole brain. Samples from each treatment group were pooled and stored at −85° C. Cytosolic extracts were prepared using the universal extraction kit from Sigma (prot-two) as follows: soluble cytoplasmic extraction reagent (S2688) was added to the hippocampal tissue (10 ml/250 mg wet weight). Samples were sonicated (4 times at 30 seconds) and centrifuged for 45 minutes (14,000 g) at 4° C. The supernatant was decanted and stored on ice. Ten milliliters of the soluble cytoplasmic extraction reagent was added to the remaining pellet and the sonication and centrifugation steps were repeated. The supernatant was decanted, combined with the previous supernatant and SpeedVac (Savant Instruments, Halbrook, N.Y.) dried. Each sample was dissolved in 2 ml of 2-D lysis buffer (6 M urea, 2 M thiourea, 4% CHAPS, 40 mM Tris, 65 mM dithiothreitol (DTT), 1 mM sodium vanadate, 1 mM sodium fluoride, protease inhibitor tablet (#1836145, Roche)), concentrated and desalted (Centricon tube; 6500 rpm) at 10° C. for 12 hours.
Two-dimensional gel electrophoresis. First dimensional isoelectric focusing (IEF) was performed on 18 cm IPG strips (pH 4-7) using an IPGphor unit (Amersham Pharmacia). Each strip was rehydrated for 16 hours with sample lysate (˜500 ug) in a final volume of 400 uL of IEF solution (10 uL of bromophenol blue (0.25% w/v); 2 uL of Ampholyte (pH 4-7, Amersham #17-6000-86); 2-D lysis buffer). […] The strips were then subjected to a two-step equilibration (50 mM Tris; 2% SDS; 30% glycerol) in (A) 0.5% DTT (Bio-Rad) and (B) 4.5% iodoacetamide (Sigma) buffers before proceeding to SDS-PAGE. […] Molecular masses were determined by running standard protein markers (Genomic Solutions Inc.), covering the range 10-200 kDa as well as internal verification via landmark proteins within the gel. […]
as §4

Compound	Fold change, Probasin precursor [1] [Fold change]	Fold change, Serine Protease Inhibitor 2.1 (SPI-2.1) [2] [Fold change]	Fold change, Cytochrome C oxidase polypeptide VB (COX5B) [3] [Fold change]	Fold change, Ras-related protein RAB-1B [4] [Fold change]	Fold change, PCTAIRE-3 [5] [Fold change]	Fold change, IGF-1 A precursor (IGF-1 A precursor) [Fold change]	Fold change, 60S Ribosomal Protein L35A [6] [Fold change]	Fold change, Proteasome subunit alpha type 2 ([7]; gel spot 27) [Fold change]	Fold change, Proteasome subunit alpha type 2 ([7]; gel spot 27, listed as fluoxetine) [Fold change]	Fold change, Proteasome subunit alpha type 2 ([7]; gel spot 27, listed as venlafaxine) [Fold change]
CNCCC(Oc1ccc(C(F)(F)F)cc1)c1ccccc1 (stereo not drawn) [Fluoxetine, fluoxetine]	2.7	2.9	3.2	1.5	1.5	2.5	2.2	6.1	6	–
COc1ccc(C(CN(C)C)C2(O)CCCCC2)cc1 (stereo not drawn) [Venlafaxine, venlafaxine]	2.7	1.9	4	1.5	1.5	2.9	2.5	10.6	–	10
